Results on 1 compound are retold here after US20240132463A1, “SUBSTITUTED N-(2-(2,6-DIOXOPIPERIDIN-3-YL)-1,3-DIOXOISOINDOLIN-5-YL)ARYLSULFONAMIDE ANALOGS AS MODULATORS OF CEREBLON PROTEIN” (ST. JUDE CHILDREN'S RESEARCH HOSPITAL, INC., priority 2020, published 2024).

The term clearance denotes the volume of plasma or blood freed of the substance per unit of time. A low value points to inefficient removal.

The nature of data set [1]: Plasma protein binding assay (mouse). It counts as in vitro ADME. On the procedure:
(§1) Stock solutions were prepared at 10 mM in DMSO. Dulbecco's phosphate buffered saline (DPBS; pH 7.4) was obtained from Invitrogen (Carlsbad, CA). Single-Use RED (rapid equilibrium dialysis) device was obtained from Thermo scientific (Rockford, IL). Human and mouse plasma were obtained from GeneTex (Irvine, CA). Sample preparation for plasma protein binding was modified from Waters' method (see Waters, N.J., et al., J Pharm Sci. 2008 October; 97(10):4586-95). The Teflon base plate with the RED inserts was used without any pre-conditioning the membrane inserts. Plasma was thawed and centrifuged at 1000 rpm for 10 min to remove any particulates. Each compound was prepared at 10 μM in human or mouse plasma. Spiked plasma solutions (300 μL) were placed into the sample chamber (indicated by the red ring) and 500 μL of DPBS into the adjacent chamber. The plate was sealed and incubated at 37° C. on an orbital shaker (100 rpm) for 4 hours. After incubation, the seal was removed from the RED plate and the volume of the insert confirmed-little to no volume change occurred. […] The test compound concentrations were quantified in both buffer and plasma chambers via peak areas relative to the internal standard. The percentage of the test compound bound to plasma was calculated on following equations: % Free=(Concentration buffer chamber/concentration plasma chamber)×100% and % Bound=100%-% Free.

Data set [2] in a line: Liver microsomes stability assay (mouse). In kind it is in vitro ADME. On the procedure:
The liver microsome stability assay was carried as previously described (Refs. 40-41). NADPH regenerating agent solutions A and B and mouse liver microsomes (CD-1) were obtained from BD Gentest (Woburn, MA). Pooled human liver microsomes were purchased from XenoTech (Lenexa, KS). Ninety-six deep well plates were obtained from Midsci (St. Louis, MO). Ninety-six analytical plates were obtained from Corning Incorporated (Acton, MA). Sample preparation for microsomal stability was modified from Di's publications. A set of incubation times of 0, 15, 30, 60, 120, and 240 min were used. DMSO stock solutions of test compounds and verapamil (system control) were prepared at 10 mM concentration. Concentrated human or mouse liver microsomes (20 mg/mL protein concentration) and 0.5 M EDTA were diluted into 0.1 M potassium phosphate buffer (pH 7.4) and mixed well, followed by compounds solutions being spiked. This solution was mixed and 90 μL was transferred to 6 time points plates (each in triplicate wells). For the time 0 h plate, 3 fold (v:v) cold acetonitrile with internal standard (40 ng/ml warfarin) was added to each well, followed by addition of NADPH regenerating agent (mixing NADPH solutions A and B in PBS, pH7.4) and no incubation. […] The metabolic stability was evaluated via the half-life from least-squares fit of the multiple time points based on first-order kinetics.

Data set [3] is described as follows: Pharmacokinetics (PK) study in CD1 mice. In kind it is in vivo, mouse. On the procedure: Healthy female CD1 mice (8-12 weeks old) weighing between 20 to 30 g were procured from Global, India. Three mice were housed in each cage. Temperature and humidity were maintained at 22±3° C. and 30-70%, respectively and illumination was controlled to give a sequence of 12 hr light and 12 hr dark cycle. Temperature and humidity were recorded by auto-controlled data logger system. All the animals were provided laboratory rodent diet (Envigo Research private Ltd, Hyderabad). Reverse osmosis water treated with ultraviolet light was provided ad libitum. Formulation vehicle: 5% v/v NMP: 5% v/v Solute HS-15 and 90% v/v normal saline. […] The dosing volume for intravenous was 5 mL/kg and for oral administration 10 mL/kg. Blood samples (approximately 60 μL) were collected under light isoflurane anesthesia (Surgivet®) from retro orbital plexus from a set of three mice at 0.08 (for IV only), 0.25, 0.5, 1, 2, 4, 6 (for PO only), 8, 12 and 24 hr. Immediately after blood collection, plasma was harvested by centrifugation at 4000 rpm, 10 min at […] and samples were stored at −70±10° C. until bioanalysis. […] Non-Compartmental-Analysis tool of Phoenix WinNonlin® (Version 8.0) was used to assess the pharmacokinetic parameters. Peak plasma concentration (Cmax) and time for the peak plasma concentration (Tmax) were the observed values. The areas under the concentration time curve (AUClast and AUCinf) were calculated by linear trapezoidal rule. The terminal elimination rate constant, ke was determined by regression analysis of the linear terminal portion of the log plasma concentration-time curve. Clearance was estimated as Dose/AUCinf and Vss as CL*MRT. The oral bioavailability was calculated as ratio of dose normalized AUC of oral and intravenous group multiplied by 100.

The next data set relates to caspase 3/7. In words: Caspase 3/7 activity assay. It counts as cell-based, human. The settings on record: MV4-11 cells, Caspase-Glo, 4, 8 and 24 hours, 10 and 100 nM.
Data set [4] has as its system CRBN knockout MV4-11 cells. Description: Cell viability in CRBN knockout MV4-11 cells. In kind it is cell-based, human. The settings on record: CRBN knockout vs wild-type MV4-11 cells.
Description: (§2) MV-4-11 cell line was purchased from the American Type Culture Collection (ATCC, Manassas, VA). The cells were cultured according to recommendations in IMDM cell culture media (ATCC). Exponentially growing MV-4-11 cells were plated at 1,000 cells per well in Corning 8804BC white 384-well assay plates and incubated overnight at 37° C. in a humidified 5% CO2 incubator. Compounds were transferred to the assay plate from a dose-response plate using a Pintool on a Biomek FXP Laboratory Automation Workstation (Beckman Coulter). Cytotoxicity was determined following 72 hours of incubation using Promega Cell Titer Glo reagent according to the manufacturer's recommendation. Luminescence was measured on an Envision plate reader (Perkin-Elmer).
CRBN-deficient MV4:11 cells were generated using CRISPR-Cas9 technology. […] Five days post nucleofection, cells were single-cell sorted by FACs to enrich for GFP+(transfected) cells, clonally selected, and verified for the desired targeted modification via targeted deep sequencing using gene specific primers with partial Illumina adapter overhangs (hCRBN.F—5′-[sequence]-3′ (SEQID: 6) and hCRBN.R—5′-[sequence]-3′, (SEQID: 7); overhangs not shown) and analyzed using CRIS.py (Ref. 36).
Data set [5] has as its system MV4-11 cells. Description: Lenalidomide competition assay. As to conditions: co-treatment with lenalidomide 10 μM, 72 h. In kind it is cell-based, human.
Description: (§3) Compounds were screened in human cancer cell lines and each cell line was cultured in the complete medium recommended by the vendor and seeded in Corning 8804BC white 384-well assay plates at density of 1,000, 1,000, 1,000, 1,500 and 7,500 cells per well, for MV4-11, HD-MB03, MB004, MB002 and MHH-CALL4 cells respectively. After overnight incubation at 37° C. in a humidified 5% CO2 incubator, cells were treated with compounds in dose-response format using a Pintool on a Biomek FXP Laboratory Automation Workstation (Beckman Coulter). […] After 72 h incubation, cell proliferation was assessed using Cell Titer-Glo (CTG) luminescent cell viability assay (Promega) according to the manufacturer's instruction. Luminescence signal was measured using an Envision plate reader (Perkin-Elmer).
The test system of data set [6] is MV4-11 cells. In words: MV-4-11 cell viability assay. It counts as cell-based, human. As to conditions: 72 hours, Cell Titer Glo. For orientation: In ATP-based viability assays light output follows the ATP content of the culture.
Description: as §2, §3
Data set [7] can be described thus: Plasma protein binding assay (human). In kind it is in vitro ADME. On the procedure: as §1

For `O=C1CCC(N2C(=O)c3ccc(NS(=O)(=O)c4ccccc4OC(F)(F)F)cc3C2=O)C(=O)N1` (stereo not drawn) [Compound 1, N-(2-(2,6-dioxopiperidin-3-yl)-1,3-dioxoisoindolin-5-yl)-2-(trifluoromethoxy)benzenesulfonamide], the Plasma protein binding in data set [1] is given as 99.3%. Moreover, in data set [2], the “intrinsic clearance Clint” value is on record as 12 mL/min/kg and the “liver microsomes t1/2” value was 4.7 h. In data set [3] (3 mg/kg IV), the clearance turned out to be 0.46 mL/min/kg and the volume of distribution is 0.15 L/kg. The oral bioavailability in data set [3] (10 mg/kg PO vs 3 mg/kg IV) is recorded as 84%. Besides, in data set [3] (female, CD1, mouse, plasma, 3 mg/kg IV, read-out: terminal elimination half-life (t1/2) (converted)), the half-life is 3.4 h. In addition, the caspase activation result in the data set on caspase 3/7 is “measurable at 8 hours”. The “antiproliferative activity in absence of CRBN” value in data set [4] is “abolished”. Also, the “antiproliferative effect in presence of lenalidomide” value with MV4-11 cells [5] was “abrogating the antiproliferative effects”. In the data set with MV4-11 cells [6], the “MV4-11 EC50” value is “among the most potent”. Also, in data set [7], the Plasma protein binding is reported as 99.1%.
